Measurements reported in ChEMBL document CHEMBL4311943, “3-[(1S,2S,3R)-2,3-Difluoro-1-hydroxy-7-methylsulfonylindan-4-yl]oxy-5-fluorobenzonitrile (PT2977), a Hypoxia-Inducible Factor 2α (HIF-2α) Inhibitor for the Treatment of Clear Cell Renal Cell Carcinoma” (J Med Chem, 2019).
Calls of active or inactive are those of the source. The calls are words filed in the database; no cut-off is given here.

Tests used:
[1] = biological target: Platelet-activating factor receptor (Homo sapiens) (UniProt P25105); assay: Activity at human PAF receptor at 10 uM
[2] = biological target: Thyrotropin receptor (Homo sapiens) (UniProt P16473); assay: Activity at human TSH at 10 uM
[3] = biological target: Sphingosine 1-phosphate receptor 3 (Homo sapiens) (UniProt Q99500); assay: Activity at human S1P3 receptor at 10 uM
[4] = biological target: Tyrosine-protein kinase Lyn (Homo sapiens) (UniProt P07948); assay: Activity at human Lyn at 10 uM
Cytochrome P450 2C19 = Cytochrome P450 2C19 (Homo sapiens, UniProt P33261); assay: Inhibition of CYP2C19 in human liver microsomes up to 50 uM using S-mephenytoin as substrate measured after 20 mins in presence of NADPH by LC-MS/MS analysis; assay type: ADME
[5] = biological target: Prostaglandin F2-alpha receptor (Homo sapiens) (UniProt P43088); assay: Activity at human Prostanoid FP receptor at 10 uM
[6] = Plasma concentration in patient with advanced solid tumor at 160 mg, po administered once daily measured on day 15 after 24 hrs; assay type: ADME, organism-based; conditions: human
[7] = biological target: Prolactin-releasing peptide receptor (Homo sapiens) (UniProt P49683); assay: Activity at human PRP receptor at 10 uM
[8] = Lipophilicity, log D of the compound at pH 7.4; assay type: physicochemical; conditions: buffer
[9] = biological target: Histamine H1 receptor (Homo sapiens) (UniProt P35367); assay: Activity at human H1 receptor at 10 uM
[10] = AUClast in patient with advanced solid tumor at 240 mg, po administered once daily measured on day 15; assay type: ADME, organism-based; set-up: dose 240 mg, time 0 - last, route oral; conditions: human, in vivo
[11] = Cmax in patient with advanced solid tumor at 80 mg, po administered once daily measured on day 15; assay type: ADME, organism-based; set-up: dose 80 mg, route oral; conditions: human, in vivo
[12] = biological target: Calcium/calmodulin-dependent protein kinase type II subunit beta (Homo sapiens) (UniProt Q13554); assay: Activity at human CAMK2B at 10 uM
Cytochrome P450 1A2 = Cytochrome P450 1A2 (Homo sapiens, UniProt P05177); assay: Inhibition of CYP1A2 in human liver microsomes up to 50 uM using phenacetin as substrate measured after 10 mins in presence of NADPH by LC-MS/MS analysis; assay type: ADME
[13] = Half life in Sprague-Dawley rat at 1 mg/kg, iv by UPLC-MS analysis; assay type: ADME, organism-based; conditions: in vivo
[14] = biological target: Tyrosine-protein phosphatase non-receptor type 2 (Homo sapiens) (UniProt P17706); assay: Activity at human TCPTP at 10 uM
[15] = biological target: Potassium voltage-gated channel subfamily KQT member 1 (Homo sapiens, UniProt P51787); assay: Activity at human KCNQ1 at 10 uM
[16] = Cmax in patient with advanced solid tumor at 160 mg, po administered once daily measured on day 15; assay type: ADME, organism-based; set-up: dose 160 mg, route oral; conditions: human, in vivo
[17] = Drug level in plasma of SCID Beige mouse xenografted with human 786-O cells at 0.3 mg/kg, po administered twice daily via gavage for 3 days measured 12 hrs post-last dose; assay type: ADME, organism-based
[18] = Half life in patient with advanced solid tumor at 160 mg, po administered once daily measured on day 15; assay type: ADME, organism-based; conditions: human, in vivo
[19] = biological target: Calcium/calmodulin-dependent protein kinase type IV (Homo sapiens) (UniProt Q16566); assay: Activity at human CAMK4 at 10 uM
[20] = biological target: T1, UDP-glucuronosyltransferase 2B17 (Homo sapiens, UniProt O75795); assay: Substrate activity at UGT2B17 in human intestinal microsomes assessed as enzyme-mediated glucuronidation by measuring Vmax per mg protein at 2 to 1000 uM preincubated for 5 mins followed by UDPGA addition and measured after 60 mins by LC-MS/MS analysis; assay type: ADME, Intestine; conditions: 1 h
T1 sequence (O75795 whole entry): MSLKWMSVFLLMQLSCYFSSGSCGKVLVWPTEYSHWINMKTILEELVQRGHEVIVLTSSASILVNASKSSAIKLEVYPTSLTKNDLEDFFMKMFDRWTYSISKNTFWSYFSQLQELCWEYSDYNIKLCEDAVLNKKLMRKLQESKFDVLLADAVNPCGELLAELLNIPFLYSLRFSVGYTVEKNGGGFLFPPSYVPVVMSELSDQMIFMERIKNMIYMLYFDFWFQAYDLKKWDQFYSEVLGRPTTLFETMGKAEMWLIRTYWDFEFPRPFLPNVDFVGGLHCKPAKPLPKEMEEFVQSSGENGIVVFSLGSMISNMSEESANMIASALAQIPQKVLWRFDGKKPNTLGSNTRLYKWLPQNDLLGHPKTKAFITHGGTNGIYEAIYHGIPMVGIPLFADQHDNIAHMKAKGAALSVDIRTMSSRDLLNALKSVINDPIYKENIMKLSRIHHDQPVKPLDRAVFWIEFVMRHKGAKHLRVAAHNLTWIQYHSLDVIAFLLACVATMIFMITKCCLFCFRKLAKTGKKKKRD

Cytochrome P450 2C9 = Cytochrome P450 2C9 (Homo sapiens, UniProt P11712); assay: Inhibition of CYP2C9 in human liver microsomes up to 50 uM using diclofenac as substrate measured after 10 mins in presence of NADPH by LC-MS/MS analysis; assay type: ADME
[21] = biological target: Adenosine receptor A3 (Homo sapiens) (UniProt P0DMS8); assay: Activity at human adenosine A3 receptor at 10 uM
[22] = biological target: Alpha-2A adrenergic receptor (Homo sapiens) (UniProt P08913); assay: Activity at human alpha2A receptor at 10 uM
[23] = biological target: Thromboxane A2 receptor (Homo sapiens) (UniProt P21731); assay: Activity at human Prostanoid TP receptor at 10 uM
[24] = biological target: Beta-2 adrenergic receptor (Homo sapiens) (UniProt P07550); assay: Activity at human beta2 receptor at 10 uM
[25] = biological target: Vasoactive intestinal polypeptide receptor 1 (Homo sapiens) (UniProt P32241); assay: Activity at human VPAC1 long isoform at 10 uM
[26] = biological target: RAC-beta serine/threonine-protein kinase (Homo sapiens) (UniProt P31751); assay: Activity at human PKBbeta at 10 uM
[27] = biological target: Mitogen-activated protein kinase 1 (Homo sapiens) (UniProt P28482); assay: Activity at human MAPK1 at 10 uM
[28] = biological target: Calcium/calmodulin-dependent protein kinase type II subunit gamma (Homo sapiens) (UniProt Q13555); assay: Activity at human CAMK2G at 10 uM
[29] = biological target: Vasopressin V1a receptor (Homo sapiens) (UniProt P37288); assay: Activity at human V1A receptor at 10 uM
[30] = Half life in monkey at 1 mg/kg, iv by UPLC-MS analysis; assay type: ADME, organism-based, Macaca mulatta; conditions: rhesus monkey, in vivo
[31] = biological target: Prostacyclin receptor (Homo sapiens) (UniProt P43119); assay: Activity at human Prostanoid IP1 receptor at 10 uM; assay type: functional
[32] = Plasma concentration in patient with advanced solid tumor at 40 mg, po administered once daily measured on day 15 after 24 hrs; assay type: ADME, organism-based; conditions: human
[33] = biological target: P2Y purinoceptor 1 (Homo sapiens) (UniProt P47900); assay: Activity at human P2Y1 receptor at 10 uM

Potassium voltage-gated channel subfamily KQT member 1, sequence (P51787 whole entry): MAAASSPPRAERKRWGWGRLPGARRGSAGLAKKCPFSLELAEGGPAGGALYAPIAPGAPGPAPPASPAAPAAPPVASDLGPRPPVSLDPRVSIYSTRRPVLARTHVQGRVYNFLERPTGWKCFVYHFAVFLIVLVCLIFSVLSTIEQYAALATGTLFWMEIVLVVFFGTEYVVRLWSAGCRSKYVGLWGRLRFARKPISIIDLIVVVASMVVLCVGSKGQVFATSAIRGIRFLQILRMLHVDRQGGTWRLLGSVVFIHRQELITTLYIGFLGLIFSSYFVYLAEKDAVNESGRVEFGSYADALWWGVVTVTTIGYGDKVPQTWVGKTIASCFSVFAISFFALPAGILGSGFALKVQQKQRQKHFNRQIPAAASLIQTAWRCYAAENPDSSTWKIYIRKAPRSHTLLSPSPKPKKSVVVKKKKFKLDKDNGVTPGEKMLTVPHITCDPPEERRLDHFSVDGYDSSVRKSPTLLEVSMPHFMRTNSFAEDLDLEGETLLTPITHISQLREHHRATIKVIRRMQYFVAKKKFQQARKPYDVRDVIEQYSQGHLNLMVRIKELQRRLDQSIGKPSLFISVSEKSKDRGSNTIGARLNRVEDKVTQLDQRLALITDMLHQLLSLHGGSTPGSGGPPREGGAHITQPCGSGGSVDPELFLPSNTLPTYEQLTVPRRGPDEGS
Beta-2 adrenergic receptor (Homo sapiens), sequence (P07550 whole entry, looked up, canonical isoform): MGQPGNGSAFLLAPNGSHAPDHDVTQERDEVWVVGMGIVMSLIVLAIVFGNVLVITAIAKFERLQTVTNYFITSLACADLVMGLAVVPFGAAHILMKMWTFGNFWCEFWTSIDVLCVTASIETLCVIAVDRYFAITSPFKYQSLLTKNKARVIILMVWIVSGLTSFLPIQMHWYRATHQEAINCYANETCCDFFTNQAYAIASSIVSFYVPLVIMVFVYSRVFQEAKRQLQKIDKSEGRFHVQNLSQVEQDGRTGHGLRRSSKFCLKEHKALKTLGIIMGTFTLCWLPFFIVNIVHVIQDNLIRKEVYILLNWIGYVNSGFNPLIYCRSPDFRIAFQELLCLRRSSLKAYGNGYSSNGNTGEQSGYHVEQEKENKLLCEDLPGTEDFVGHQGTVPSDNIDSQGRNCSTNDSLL
Calcium/calmodulin-dependent protein kinase type II subunit gamma (Homo sapiens), sequence (Q13555 whole entry): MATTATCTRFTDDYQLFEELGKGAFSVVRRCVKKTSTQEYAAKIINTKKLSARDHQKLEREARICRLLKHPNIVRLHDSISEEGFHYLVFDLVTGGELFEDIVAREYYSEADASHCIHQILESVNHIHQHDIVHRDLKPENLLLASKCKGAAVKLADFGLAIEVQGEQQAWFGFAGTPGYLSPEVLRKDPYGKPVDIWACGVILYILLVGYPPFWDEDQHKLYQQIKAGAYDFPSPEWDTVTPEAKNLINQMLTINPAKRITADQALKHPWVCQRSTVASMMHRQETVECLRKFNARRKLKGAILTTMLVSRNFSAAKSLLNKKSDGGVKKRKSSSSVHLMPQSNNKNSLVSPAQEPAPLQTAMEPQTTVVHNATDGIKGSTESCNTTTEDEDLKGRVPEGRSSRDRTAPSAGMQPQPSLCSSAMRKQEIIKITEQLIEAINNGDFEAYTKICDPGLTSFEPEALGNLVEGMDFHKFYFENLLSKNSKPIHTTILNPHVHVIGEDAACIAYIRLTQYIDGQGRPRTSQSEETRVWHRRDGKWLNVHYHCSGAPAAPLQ
Sphingosine 1-phosphate receptor 3 (Homo sapiens), sequence (Q99500 whole entry): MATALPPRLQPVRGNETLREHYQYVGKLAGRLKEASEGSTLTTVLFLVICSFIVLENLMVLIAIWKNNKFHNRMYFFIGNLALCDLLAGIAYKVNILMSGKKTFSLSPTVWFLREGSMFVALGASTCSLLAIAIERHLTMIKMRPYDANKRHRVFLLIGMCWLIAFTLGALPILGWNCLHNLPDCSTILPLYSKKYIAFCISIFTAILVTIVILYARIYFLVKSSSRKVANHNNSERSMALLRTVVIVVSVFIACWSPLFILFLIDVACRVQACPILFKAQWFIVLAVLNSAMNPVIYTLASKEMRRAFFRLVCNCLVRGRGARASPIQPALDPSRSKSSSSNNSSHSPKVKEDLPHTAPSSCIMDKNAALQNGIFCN
Adenosine receptor A3 (Homo sapiens), sequence (P0DMS8 whole entry): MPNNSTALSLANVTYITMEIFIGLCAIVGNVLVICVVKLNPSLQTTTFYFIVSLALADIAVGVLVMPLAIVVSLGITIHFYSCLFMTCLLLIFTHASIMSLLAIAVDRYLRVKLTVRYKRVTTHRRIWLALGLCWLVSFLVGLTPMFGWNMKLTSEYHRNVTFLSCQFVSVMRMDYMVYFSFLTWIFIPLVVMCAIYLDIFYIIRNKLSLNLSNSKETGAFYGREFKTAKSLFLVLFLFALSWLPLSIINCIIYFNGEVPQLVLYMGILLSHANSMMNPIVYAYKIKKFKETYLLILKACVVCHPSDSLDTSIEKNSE
Calcium/calmodulin-dependent protein kinase type II subunit beta (Homo sapiens), sequence (Q13554 whole entry): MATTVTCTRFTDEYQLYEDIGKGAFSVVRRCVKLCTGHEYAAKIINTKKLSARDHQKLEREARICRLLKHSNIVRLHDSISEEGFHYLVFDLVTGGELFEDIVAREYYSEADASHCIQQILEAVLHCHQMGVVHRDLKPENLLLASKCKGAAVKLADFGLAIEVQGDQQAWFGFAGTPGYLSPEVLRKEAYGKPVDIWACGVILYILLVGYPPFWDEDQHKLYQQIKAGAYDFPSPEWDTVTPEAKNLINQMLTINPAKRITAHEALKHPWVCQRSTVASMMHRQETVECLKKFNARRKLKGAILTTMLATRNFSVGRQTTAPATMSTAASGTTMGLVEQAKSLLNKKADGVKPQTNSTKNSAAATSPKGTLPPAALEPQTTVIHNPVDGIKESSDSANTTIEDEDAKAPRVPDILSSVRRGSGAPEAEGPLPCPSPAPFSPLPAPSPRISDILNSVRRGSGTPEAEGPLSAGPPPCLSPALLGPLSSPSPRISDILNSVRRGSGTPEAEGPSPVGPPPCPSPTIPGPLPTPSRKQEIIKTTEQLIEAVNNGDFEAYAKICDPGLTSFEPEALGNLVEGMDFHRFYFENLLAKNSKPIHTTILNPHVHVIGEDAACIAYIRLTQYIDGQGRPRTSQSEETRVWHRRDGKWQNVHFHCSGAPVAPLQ
Tyrosine-protein phosphatase non-receptor type 2 (Homo sapiens), sequence (P17706 whole entry): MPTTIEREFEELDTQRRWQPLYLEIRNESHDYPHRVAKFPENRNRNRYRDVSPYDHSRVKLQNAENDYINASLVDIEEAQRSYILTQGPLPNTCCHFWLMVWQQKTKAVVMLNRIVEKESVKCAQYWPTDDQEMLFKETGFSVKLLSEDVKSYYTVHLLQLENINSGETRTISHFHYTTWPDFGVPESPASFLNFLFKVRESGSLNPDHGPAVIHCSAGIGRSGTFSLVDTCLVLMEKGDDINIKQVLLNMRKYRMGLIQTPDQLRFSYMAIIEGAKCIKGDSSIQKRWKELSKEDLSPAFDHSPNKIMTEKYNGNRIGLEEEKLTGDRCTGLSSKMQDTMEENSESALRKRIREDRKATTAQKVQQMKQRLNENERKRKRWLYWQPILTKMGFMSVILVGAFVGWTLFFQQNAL
Cytochrome P450 1A2, sequence (P05177 whole entry): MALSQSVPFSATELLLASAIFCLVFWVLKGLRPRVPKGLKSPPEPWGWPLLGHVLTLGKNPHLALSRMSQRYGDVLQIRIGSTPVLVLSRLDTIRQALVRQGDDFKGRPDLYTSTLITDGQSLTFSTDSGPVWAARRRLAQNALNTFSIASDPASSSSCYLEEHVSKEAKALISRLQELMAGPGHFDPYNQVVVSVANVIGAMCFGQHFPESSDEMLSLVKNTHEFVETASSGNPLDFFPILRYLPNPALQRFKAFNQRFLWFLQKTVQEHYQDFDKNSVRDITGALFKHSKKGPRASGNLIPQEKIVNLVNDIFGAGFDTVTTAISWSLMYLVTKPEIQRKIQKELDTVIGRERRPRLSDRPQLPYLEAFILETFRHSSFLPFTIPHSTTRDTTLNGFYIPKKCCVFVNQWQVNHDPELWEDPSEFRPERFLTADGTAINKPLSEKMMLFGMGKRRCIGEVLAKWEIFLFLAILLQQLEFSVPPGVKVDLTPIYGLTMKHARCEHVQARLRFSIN
Calcium/calmodulin-dependent protein kinase type IV (Homo sapiens), sequence (Q16566 whole entry): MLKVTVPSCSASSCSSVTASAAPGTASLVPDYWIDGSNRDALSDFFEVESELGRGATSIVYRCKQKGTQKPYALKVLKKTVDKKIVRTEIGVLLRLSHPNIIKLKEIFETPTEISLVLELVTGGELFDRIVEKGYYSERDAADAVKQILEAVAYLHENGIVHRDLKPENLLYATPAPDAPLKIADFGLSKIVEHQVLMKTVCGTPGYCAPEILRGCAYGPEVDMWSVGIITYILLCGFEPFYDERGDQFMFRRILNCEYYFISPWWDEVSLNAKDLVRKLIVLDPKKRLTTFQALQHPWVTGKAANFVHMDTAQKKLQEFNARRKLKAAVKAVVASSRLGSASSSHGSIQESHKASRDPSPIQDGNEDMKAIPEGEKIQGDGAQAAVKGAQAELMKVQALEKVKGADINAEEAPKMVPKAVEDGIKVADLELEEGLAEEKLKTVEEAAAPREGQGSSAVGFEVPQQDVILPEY
Tyrosine-protein kinase Lyn (Homo sapiens), sequence (P07948 2-512 limits assumed): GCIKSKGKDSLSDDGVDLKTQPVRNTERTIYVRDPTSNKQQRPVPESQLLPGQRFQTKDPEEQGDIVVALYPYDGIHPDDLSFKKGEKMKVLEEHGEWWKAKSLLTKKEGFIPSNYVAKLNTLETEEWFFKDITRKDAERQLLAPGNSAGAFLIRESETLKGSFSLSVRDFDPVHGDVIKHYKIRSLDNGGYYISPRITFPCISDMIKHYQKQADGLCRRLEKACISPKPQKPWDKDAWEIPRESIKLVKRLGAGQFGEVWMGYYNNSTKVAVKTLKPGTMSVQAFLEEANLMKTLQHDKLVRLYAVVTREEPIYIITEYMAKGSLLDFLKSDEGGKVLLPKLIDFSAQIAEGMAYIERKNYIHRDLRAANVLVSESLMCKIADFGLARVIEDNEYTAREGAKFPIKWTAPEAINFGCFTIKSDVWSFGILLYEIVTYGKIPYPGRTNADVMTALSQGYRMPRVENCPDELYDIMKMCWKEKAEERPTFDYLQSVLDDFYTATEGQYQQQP

- Activity [1]: inactive
- Activity [2]: inactive
- Activity [3]: inactive
- Activity [4]: inactive
- inhibition (INH) (Cytochrome P450 2C19): Not Active
- Activity [5]: inactive
- concentration at 24 h [6]: 490 ng/mL
- Activity [7]: inactive
- logD [8]: 1.2
- Activity [9]: inactive
- AUC(0-t) [10]: 28000 ng·h/mL
- Cmax [11]: 1400 ng/mL
- Activity [12]: inactive
- inhibition (INH) (Cytochrome P450 1A2): Not Active
- half-life [13]: 1.4 h
- Activity [14]: inactive
- Activity [15]: Not Active
- Cmax [16]: 2000 ng/mL
- concentration at 12 h [17]: < 19 ng/mL
- half-life [18]: 12.2 h
- Activity [19]: inactive
- Vmax [20]: 0.5 pmol/min
- inhibition (INH) (Cytochrome P450 2C9): Not Active
- Activity [21]: inactive
- Activity [22]: inactive
- Activity [23]: inactive
- Activity [24]: inactive
- Activity [25]: inactive
- Activity [26]: inactive
- Activity [27]: inactive
- Activity [28]: inactive
- Activity [29]: inactive
- half-life [30]: 9.2 h
- Activity [31]: inactive
- concentration at 24 h [32]: 190 ng/mL
- Activity [33]: inactive
Structure (SMILES): CS(=O)(=O)c1ccc(Oc2cc(F)cc(C#N)c2)c2c1[C@H](O)[C@H](F)[C@@H]2F [BELZUTIFAN]
